Measurements from patent US20260116921A1, “PEPTIDE INHIBITORS OF INTERLEUKIN-23 RECEPTOR AND THEIR USE TO TREAT INFLAMMATORY DISEASES” (priority 2018, published 2026).
Where two headings read alike, the source gives them in different places. Numbered stars: 1 amine (or outer) side, 2 acyl side, 3 side chain; on linkers, the order of the positions; unused ones are H or OH. Bridge positions count the residues as written; N and C are the ends. Square brackets hold non-standard residues; d marks the D form. Peptide text beside a SMILES is read from it. X4 = CC(C)c1cccc2c(C[C@H](N[*:1])C(=O)[*:2])c[nH]c12; Trp(7-Me) = Cc1cccc2c(C[C@H](N)C(=O)O)c[nH]c12; Trp(1-Me) = Cn1cc(C[C@H](N)C(=O)O)c2ccccc21; Abu(4-yl) = O=C([C@H](CC[*:3])N[*:1])[*:2]; 2Nal = N[C@@H](Cc1ccc2ccccc2c1)C(=O)O; AEF = NCCOc1ccc(C[C@H](N)C(=O)O)cc1; Cit = NC(=O)NCCC[C@H](N)C(=O)O; Pen = CC(C)(S)[C@H](N)C(=O)O; αMeK = C[C@](N)(CCCCN)C(=O)O; βAla = NCCC(=O)O

Tests used:
[1] = molecular target: T1, IL-23R (Homo sapiens, UniProt Q5VWK5); assay: DB cells IL23R pSTAT3 cell assay (pStat3 HTRF); format: cell-based; conditions: Table E3; DB cells, IL-23 0.5 nM, 30 minutes at 37° C.; read-out: pStat3 HTRF (IC50)
T1 sequence (Q5VWK5 24-629): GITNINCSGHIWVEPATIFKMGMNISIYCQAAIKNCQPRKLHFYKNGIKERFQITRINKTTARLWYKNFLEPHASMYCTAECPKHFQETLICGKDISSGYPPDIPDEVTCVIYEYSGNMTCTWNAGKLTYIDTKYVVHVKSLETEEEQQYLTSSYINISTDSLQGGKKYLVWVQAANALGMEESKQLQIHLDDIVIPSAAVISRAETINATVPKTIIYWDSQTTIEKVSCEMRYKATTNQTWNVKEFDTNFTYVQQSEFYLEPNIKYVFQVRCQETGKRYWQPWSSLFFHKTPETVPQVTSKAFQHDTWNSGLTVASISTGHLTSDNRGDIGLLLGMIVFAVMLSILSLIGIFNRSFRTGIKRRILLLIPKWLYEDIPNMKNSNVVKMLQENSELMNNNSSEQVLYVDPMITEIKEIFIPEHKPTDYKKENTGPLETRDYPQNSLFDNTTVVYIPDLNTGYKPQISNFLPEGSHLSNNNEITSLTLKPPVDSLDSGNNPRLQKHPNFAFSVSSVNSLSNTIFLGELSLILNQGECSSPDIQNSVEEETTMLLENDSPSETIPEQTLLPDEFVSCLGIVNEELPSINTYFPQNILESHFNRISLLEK
How it was run: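 HTRF readout of lysate pSTAT3 (Tyr705) after two-plate processing. Peptide dilution series co-incubated with IL-23 (0.5 nM final) on 5×10E5 IL-23R-expressing DB cells per well, 30 min, 37 °C.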

[2] = in vitro; format: in vitro ADME; set-up: half-life: dose or concentration left out as unconfirmed; conditions: simulated intestinal fluid (SIF) with pancreatin, pH 6.8, 37° C., § matrix is 100 fold dilution of standard SIF concentration, read-out: SIF t½ (converted)
Method: SIF was prepared by adding 6.8 g of monobasic potassium phosphate and 10.0 g of pancreatin to 1.0 L of water. After dissolution, the pH was adjusted to 6.8 using NaOH. DMSO stocks (2 mM) were first prepared for the test compounds. Aliquots of the DMSO solutions were dosed into 6 individual tubes, each containing 0.5 mL of SIF, which is pre-warmed to 37° C. The final test compound concentration was 20 M. The vials were kept in a benchtop Thermomixer® for the duration of the experiment. At each timepoint (0, 5, 10, 20, 40, 60, or 360 minutes or 24 hours), 1.0 mL of acetonitrile containing 1% formic acid was added to one vial to terminate the reaction. Samples were stored at 4° C. until the end of the experiment. After the final timepoint is sampled, the tubes were mixed and then centrifuged at 3,000 rpm for 10 minutes. Aliquots of the supernatant were removed, diluted 1:1 into distilled water containing internal standard, and analyzed by LCMS/MS. Percent remaining at each timepoint was calculated based on the peak area response ratio of test to compound to internal standard. Time 0 was set to 100%, and all later timepoints were calculated relative to time 0. Half-lives were calculated by fitting to a first-order exponential decay equation using Graphpad.

[3] = in vitro; conditions: human, pH 6.8; for half-life at 20 μM: 20% fecal homogenate (supernatant), anaerobic
[4] = in vitro; conditions: cynomolgus monkey, pH 6.8; for half-life at 20 μM: 20% fecal homogenate (supernatant), anaerobic
Method: Fecal homogenate (20%) was prepared by adding 4 mL of growth medium (1 liter contains 2 g peptone water powder, 2 g yeast extract, 0.1 g NaCl, 0.04 g KH2PO4, 0.01 g CaCl2·6H2O, 0.01 g MgSO4·7H2O, 2 mL Tween 80, 0.5 g bile salts, 0.5 g L-cysteine HCl, 2 g NaHCO3, and 10 μL Vitamin K, pH adjusted to 6.8, and sterilized by filtration through a 0.22 μm filter) to every gram of feces (pooled freshly collected human or cynomolgus monkey feces). The suspension was vortexed to break up large clumps, and homogenized using a bead mill homogenizer. Centrifuged the homogenate at 2800×g for 15 min. The supernatant is taken out and used for incubations. DMSO stocks (10 mM) were first prepared for the test compounds. Incubations were performed in an anaerobic chamber conditioned at 37° C. Aliquots of the DMSO solutions were dosed into 1.0 mL aliquots of 20% fecal homogenate, which are pre-warmed to 37° C. The final test compound concentration was 20 μM. At each timepoint (0, 20 min, 1, 3, 6, or 24 hours), 100 μL aliquot of each incubation mixture is taken out and added to separate tubes containing 300 μL of 50% acetonitrile/50% methanol and an internal standard to terminate the reaction. Samples were taken out of the anaerobic chamber and stored at 4° C. until the end of the experiment. After the final timepoint is sampled, the tubes were mixed and then centrifuged at 3,000 rpm for 10 minutes. Aliquots of the supernatant were removed, diluted 1:1 into distilled water containing 0.1% formic acid, and analyzed by LC/MS/MS. Percent remaining at each timepoint was calculated based on the peak area response ratio of test to compound to internal standard. Time 0 was set to 100%, and all later timepoints were calculated relative to time 0. Half-lives were calculated by fitting to a first-order exponential decay equation using Graphpad or Excel.

[5] = in vitro; conditions: both, SD, rat; for half-life at 20 μM: plasma (EDTA)

Row | SMILES | IC50 [1] | half-life [2] | half-life at 20 μM [3] | half-life at 20 μM [4] | half-life at 20 μM [5] | half-life ([3]; tissue homogenate) | half-life ([4]; tissue homogenate) | half-life ([5]; plasma)
1 | CC(=O)NCCCC[C@@H]1NC(=O)[C@H](Cc2c[nH]c3c(C)cccc23)NC(=O)[C@H]([C@@H](C)O)NC(=O)[C@H](CCC(N)=O)NC(=O)[C@@H](NC(=O)[C@@H](CCCNC(=N)N)NC(C)=O)CCSC[C@@H](C(=O)N[C@@H](Cc2ccc(OCCN)cc2)C(=O)N[C@@H](Cc2ccc3ccccc3c2)C(=O)N[C@@](C)(CCCCN)C(=O)N[C@@H](CCCCNC(C)=O)C(=O)N[C@@H](CC(N)=O)C(=O)N[C@H](CCCCN)C(N)=O)NC1=O [compound 324] (Ac-[dR][Abu(4-yl)]QT[Trp(7-Me)]K(Ac)C[AEF][2Nal][αMeK]K(Ac)N[dK]-NH2; thioether 2-7) | 10 to 100 nM | 1 h |  |  |  |  |  | 
2 | CC(=O)NCCCC[C@H](NC(=O)[C@](C)(CC(C)C)NC(=O)[C@H](Cc1ccc2ccccc2c1)NC(=O)[C@H](Cc1ccc(OCCN)cc1)NC(=O)[C@H]1NC(=O)[C@H](CCC(N)=O)NC(=O)[C@H](Cc2c[nH]c3c(C)cccc23)NC(=O)[C@H]([C@@H](C)O)NC(=O)[C@H](CC(N)=O)NC(=O)[C@@H](NC(C)=O)C(C)(C)SSC1(C)C)C(=O)N[C@H](C)C(=O)NCCC(N)=O [compound 209] | 1 to 10 nM |  | > 24 h | > 24 h | 1 h |  |  | 
3 | CC(=O)NCCCC[C@H](NC(=O)[C@](C)(CCCCN)NC(=O)[C@H](Cc1ccc2ccccc2c1)NC(=O)[C@H](Cc1ccc(OCCN)cc1)NC(=O)[C@H]1NC(=O)[C@H](CCCCNC(=O)C2CCCCC2)NC(=O)[C@H](Cc2c[nH]c3c(C)cccc23)NC(=O)[C@H]([C@@H](C)O)NC(=O)[C@H](CC(N)=O)NC(=O)[C@@H](NC(C)=O)C(C)(C)SSC1(C)C)C(=O)N[C@@H](CC(N)=O)C(=O)N[C@H](CC(C)C)C(N)=O [compound 316] | 1 to 10 nM | 7 h |  |  |  |  |  | 
4 | CC(=O)NCCCC[C@H](NC(=O)[C@](C)(CCCCN)NC(=O)[C@H](Cc1ccc2ccccc2c1)NC(=O)[C@H](Cc1ccc(OCCN)cc1)NC(=O)[C@H]1NC(=O)[C@H](CCCCNC(=O)CC(C)C)NC(=O)[C@H](Cc2c[nH]c3c(C)cccc23)NC(=O)[C@H]([C@@H](C)O)NC(=O)[C@H](CC(N)=O)NC(=O)[C@@H](NC(C)=O)C(C)(C)SSC1(C)C)C(=O)N[C@@H](CC(N)=O)C(=O)N[C@H](CC(C)C)C(N)=O [compound 315] | 1 to 10 nM | 9 h |  |  |  |  |  | 
5 | CC(=O)NCCCC[C@H](NC(=O)[C@](C)(CCCCN)NC(=O)[C@H](Cc1ccc2ccccc2c1)NC(=O)[C@H](Cc1ccc(OCCN)cc1)NC(=O)[C@H]1NC(=O)[C@H](CCCNC(N)=O)NC(=O)[C@H](Cc2c[nH]c3c(C)cccc23)NC(=O)[C@H]([C@@H](C)O)NC(=O)[C@H](CC(N)=O)NC(=O)[C@@H](NC(C)=O)C(C)(C)SSC1(C)C)C(=O)N[C@@H](CC(N)=O)C(=O)N[C@H](CCCNC(=N)N)C(N)=O [compound 256] (Ac-[Pen]NT[Trp(7-Me)][Cit][Pen][AEF][2Nal][αMeK]K(Ac)N[dR]-NH2; disulfide 1-6) | < 1 nM |  | > 24 h | > 24 h | > 24 h |  |  | 
6 | CC(=O)NCCCC[C@H](NC(=O)[C@](C)(CCCCN)NC(=O)[C@H](Cc1ccc2ccccc2c1)NC(=O)[C@H](Cc1ccc(OCCN)cc1)NC(=O)[C@H]1NC(=O)[C@H](CCCCNC(=O)CCN)NC(=O)[C@H](Cc2c[nH]c3c(C)cccc23)NC(=O)[C@H]([C@@H](C)O)NC(=O)[C@H](CC(N)=O)NC(=O)[C@@H](NC(C)=O)C(C)(C)SSC1(C)C)C(=O)N[C@@H](CC(N)=O)C(=O)N[C@H](CC(C)C)C(N)=O [compound 321] | 1 to 10 nM | 3 h |  |  |  |  |  | 
7 | CC(=O)NCCCC[C@H](NC(=O)[C@](C)(CC(C)C)NC(=O)[C@H](Cc1ccc2ccccc2c1)NC(=O)[C@H](Cc1ccc(OCCN)cc1)NC(=O)[C@H]1NC(=O)[C@H](CCC(N)=O)NC(=O)[C@H](Cc2c[nH]c3c(C)cccc23)NC(=O)[C@H]([C@@H](C)O)NC(=O)[C@H](CC(N)=O)NC(=O)[C@@H](NC(C)=O)C(C)(C)SSC1(C)C)C(=O)N[C@H](Cc1c[nH]cn1)C(=O)NCCC(N)=O [compound 215] | 1 to 10 nM |  |  |  |  | > 24 h | > 24 h | 2 h
8 | CC(=O)NCCCC[C@H](NC(=O)[C@](C)(CCCCN)NC(=O)[C@H](Cc1ccc2ccccc2c1)NC(=O)[C@H](Cc1ccc(OCCN)cc1)NC(=O)[C@H]1NC(=O)[C@H](CCC(N)=O)NC(=O)[C@H](Cc2c[nH]c3c(C)cccc23)NC(=O)[C@H]([C@@H](C)O)NC(=O)[C@H](CCC(N)=O)NC(=O)[C@@H](NC(C)=O)C(C)(C)SSC1(C)C)C(=O)N[C@@H](CC(N)=O)C(=O)NCCC(N)=O [compound 237] | 1 to 10 nM |  | > 24 h | 6 h | > 24 h |  |  | 
9 | CC(=O)N[C@@H]1C(=O)N[C@@H](CC(N)=O)C(=O)N[C@@H]([C@@H](C)O)C(=O)N[C@@H](Cc2c[nH]c3c(C)cccc23)C(=O)N[C@@H](CCC(N)=O)C(=O)N[C@H](C(=O)N[C@@H](Cc2ccc(OCCN)cc2)C(=O)N[C@@H](Cc2ccc3ccccc3c2)C(=O)N[C@@](C)(CC(C)C)C(=O)NCC(=O)N2CCC[C@@H]2C(=O)NCCC(N)=O)C(C)(C)SSC1(C)C [compound 220] | > 100 nM |  | > 24 h | 21 h | 1 h |  |  | 
10 | CC(=O)NCCCC[C@H](NC(=O)[C@](C)(CCCCN)NC(=O)[C@H](Cc1ccc2ccccc2c1)NC(=O)[C@H](Cc1ccc(OCCN)cc1)NC(=O)[C@H]1NC(=O)[C@H](CCCNC(N)=O)NC(=O)[C@H](Cc2c[nH]c3c(C)cccc23)NC(=O)[C@H]([C@@H](C)O)NC(=O)[C@H](CC(N)=O)NC(=O)[C@@H](NC(C)=O)C(C)(C)SSC1(C)C)C(=O)N[C@@H](CC(N)=O)C(=O)N[C@@H](Cc1ccc(O)cc1)C(N)=O [compound 266] (Ac-[Pen]NT[Trp(7-Me)][Cit][Pen][AEF][2Nal][αMeK]K(Ac)NY-NH2; disulfide 1-6) | 1 to 10 nM |  | 16 h | 7 h | > 24 h |  |  | 
11 | CC(=O)NCCCC[C@H](NC(=O)[C@](C)(CCCCN)NC(=O)[C@H](Cc1cn(C)c2ccccc12)NC(=O)[C@H](Cc1ccc(OCCN)cc1)NC(=O)[C@H]1NC(=O)[C@H](CCC(N)=O)NC(=O)[C@H](Cc2c[nH]c3c(C)cccc23)NC(=O)[C@H]([C@@H](C)O)NC(=O)[C@H](CC(N)=O)NC(=O)[C@@H](NC(C)=O)C(C)(C)SSC1(C)C)C(=O)N[C@@H](CC(N)=O)C(=O)NCCC(N)=O [compound 283] (Ac-[Pen]NT[Trp(7-Me)]Q[Pen][AEF][Trp(1-Me)][αMeK]K(Ac)N[βAla]-NH2; disulfide 1-6) | 1 to 10 nM |  | > 24 h | 17 h | > 24 h |  |  | 
12 | CC(=O)NCCCC[C@H](NC(=O)[C@](C)(CCCCN)NC(=O)[C@H](Cc1ccc2ccccc2c1)NC(=O)[C@H](Cc1ccc(OCCN)cc1)NC(=O)[C@H]1NC(=O)[C@H](CCCCNC(=O)CN)NC(=O)[C@H](Cc2c[nH]c3c(C)cccc23)NC(=O)[C@H]([C@@H](C)O)NC(=O)[C@H](CC(N)=O)NC(=O)[C@@H](NC(C)=O)C(C)(C)SSC1(C)C)C(=O)N[C@@H](CC(N)=O)C(=O)N[C@H](CC(C)C)C(N)=O [compound 320] | < 1 nM | 12 h |  |  |  |  |  | 
13 | CC(=O)NCCCC[C@@H]1NC(=O)[C@H](Cc2c[nH]c3c(C(C)C)cccc23)NC(=O)[C@H]([C@@H](C)O)NC(=O)[C@H](CC(N)=O)NC(=O)[C@@H](NC(C)=O)C(C)(C)SSC(C)(C)[C@@H](C(=O)N[C@@H](Cc2ccc(OCCN)cc2)C(=O)N[C@@H](Cc2ccc3ccccc3c2)C(=O)N[C@@](C)(CCCCN)C(=O)N[C@@H](CCCCNC(C)=O)C(=O)N[C@@H](CC(N)=O)C(=O)N[C@H](CC(C)C)C(N)=O)NC1=O [compound 286] (Ac-[Pen]NT[X4]K(Ac)[Pen][AEF][2Nal][αMeK]K(Ac)N[dL]-NH2; disulfide 1-6) | 1 to 10 nM |  | > 24 h | > 24 h | > 24 h |  |  | 
14 | CC(=O)NCCCC[C@H](NC(=O)[C@](C)(CCCCN)NC(=O)[C@H](Cc1ccc2ccccc2c1)NC(=O)[C@H](Cc1ccc(OCCN)cc1)NC(=O)[C@H]1NC(=O)[C@H](CCCNC(N)=O)NC(=O)[C@H](Cc2c[nH]c3c(C)cccc23)NC(=O)[C@H]([C@@H](C)O)NC(=O)[C@H](CC(N)=O)NC(=O)[C@@H](NC(C)=O)C(C)(C)SSC1(C)C)C(=O)N[C@@H](CC(N)=O)C(=O)N[C@@H](CO)C(N)=O [compound 260] (Ac-[Pen]NT[Trp(7-Me)][Cit][Pen][AEF][2Nal][αMeK]K(Ac)NS-NH2; disulfide 1-6) | < 1 nM |  | 15 h | 3 h | > 24 h |  |  | 
